# ChEMBL document CHEMBL1143953, “Novel 2-phenylquinolin-7-yl-derived imidazo[1,5-a]pyrazines as potent insulin-like growth factor-I receptor (IGF-IR) inhibitors” (Bioorg Med Chem, 2008)
# Assays:
# Cytochrome P450 3A4 = Cytochrome P450 3A4 (Homo sapiens, UniProt P08684); test: Inhibition of CYP3A4; format: ADME
# [1] = target: T1, Insulin-like growth factor 1 receptor (Homo sapiens, UniProt P08069); test: Inhibition of human recombinant full length IGF1R
# [2] = target: Tyrosine-protein kinase ABL1 (Homo sapiens, UniProt P00519); test: Inhibition of Abl
# [3] = target: Tyrosine-protein kinase Fes/Fps (Homo sapiens, UniProt P07332); test: Inhibition of FES
# [4] = target: Fibroblast growth factor receptor 3 (Homo sapiens, UniProt P22607); test: Inhibition of FGFR3
# [5] = target: Tyrosine-protein kinase Fyn (Homo sapiens, UniProt P06241); test: Inhibition of FYN
# Focal adhesion kinase 1 = Focal adhesion kinase 1 (Homo sapiens, UniProt Q05397); test: Inhibition of FAK
# [6] = target: Receptor-type tyrosine-protein kinase FLT3 (Homo sapiens, UniProt P36888); test: Inhibition of FLT3
# [7] = target: Vascular endothelial growth factor receptor 2 (Homo sapiens, UniProt P35968); test: Inhibition of KDR at 100 uM
# [8] = target: Platelet-derived growth factor receptor beta (Homo sapiens, UniProt P09619); test: Inhibition of PDGFRbeta
# [9] = target: RAF proto-oncogene serine/threonine-protein kinase (Homo sapiens, UniProt P04049); test: Inhibition of cRaf
# [10] = target: Inhibitor of nuclear factor kappa-B kinase subunit beta (Homo sapiens, UniProt O14920); test: Inhibition of IKK-beta
# [11] = target: Rho-associated protein kinase 2 (Homo sapiens, UniProt O75116); test: Inhibition of Rock2
# [12] = Inhibition of RON at 100 uM
# [13] = target: Proto-oncogene tyrosine-protein kinase Src (Homo sapiens, UniProt P12931); test: Inhibition of SRC
# [14] = target: Dual specificity mitogen-activated protein kinase kinase 1 (Homo sapiens, UniProt Q02750); test: Inhibition of MEK1
# [15] = target: RAC-alpha serine/threonine-protein kinase (Homo sapiens, UniProt P31749); test: Inhibition of AKT1
# [16] = Inhibition of PKA
# [17] = target: Protein kinase C alpha type (Homo sapiens, UniProt P17252); test: Inhibition of PKCalpha
# [18] = AUC (0 to infinity) in Sprague-Dawley rat at 50 mg/kg, po; format: ADME, organism-based; parameters: dose 50 mg/kg, route oral, time infinity; conditions: plasma
# [19] = Oral bioavailability in Sprague-Dawley rat at 50 mg/kg; format: ADME, organism-based; conditions: in vivo
# [20] = Clearance in Beagle dog at 2.5 mg/kg, iv; format: ADME, organism-based, Canis lupus familiaris; parameters: dose 2.5 mg/kg, route intravenous; conditions: in vivo
# [21] = Volume of distribution at steady state in Beagle dog at 2.5 mg/kg, iv; format: ADME, organism-based, Canis lupus familiaris; parameters: dose 2.5 mg/kg, route intravenous; conditions: in vivo, read-out: Vdss
# [22] = Half life in Beagle dog at 2.5 mg/kg, iv; format: ADME, organism-based, Canis lupus familiaris; parameters: dose 2.5 mg/kg, route intravenous; conditions: in vivo
# [23] = Cmax in Beagle dog at 5 mg/kg, po; format: ADME, organism-based, Canis lupus familiaris; parameters: dose 5 mg/kg, route oral; conditions: in vivo
# [24] = Plasma concentration in Beagle dog at 5 mg/kg, po after 24 hrs; format: ADME, organism-based, Canis lupus familiaris; parameters: dose 5 mg/kg, route oral
# [25] = AUC (0 to infinity) in Beagle dog at 5 mg/kg, po; format: ADME, organism-based, Canis lupus familiaris; parameters: time infinity, dose 5 mg/kg, route oral; conditions: plasma
# [26] = target: Ribosomal protein S6 kinase beta-1 (Homo sapiens, UniProt P23443); test: Inhibition of P70S6K
# Aurora kinase A = Aurora kinase A (Homo sapiens, UniProt O14965); test: Inhibition of AuroraA
# [27] = Inhibition of CDK1/cyclin B
# [28] = Inhibition of CDK2/cyclin A
# [29] = Inhibition of CDK2/cyclin E
# [30] = target: Mitogen-activated protein kinase 10 (Homo sapiens, UniProt P53779); test: Inhibition of JNK3
# [31] = target: Casein kinase II subunit alpha (Homo sapiens, UniProt P68400); test: Inhibition of CK2
# NIH3T3 [32] = test: Inhibition of IGF1-stimulated purified AKT phosphorylation in mouse 3T3 cells; format: functional, cell-based
# NIH3T3 [33] = test: Inhibition of IGF1-stimulated purified ERK1 phosphorylation in mouse 3T3 cells; format: functional, cell-based
# NIH3T3 [34] = test: Inhibition of IGF1-stimulated p70S6K phosphorylation in mouse 3T3 cells; format: functional, cell-based
# NIH3T3 [35] = test: Inhibition of IGF1-induced proliferation of human IGF1R expressing mouse 3T3 cells; format: functional, cell-based
# NIH3T3 [36] = test: Antiproliferative activity against human IGF1R expressing mouse 3T3 cells; format: functional, cell-based
# [37] = Inhibition of proliferation of human H292 cells; format: functional, cell-based; conditions: NCI-H292
# [38] = Inhibition of proliferation of human Colo699 cells; format: functional; conditions: COLO 699
# NCI-H358 [39] = test: Inhibition of proliferation of human H358 cells; format: functional, cell-based
# HT-29 [40] = test: Inhibition of proliferation of human HT29 cells; format: functional, cell-based
# [41] = Inhibition of proliferation of human GEO cells; format: functional, cell-based
# COLO 205 [42] = test: Inhibition of proliferation of human Colo205 cells; format: functional, cell-based
# [43] = Induction of DNA fragmentation in human H292 cells at 10 uM relative to control; format: functional
# [44] = Induction of DNA fragmentation in human Colo699 cells at 10 uM relative to control; format: functional
# NCI-H358 [45] = test: Induction of DNA fragmentation in human H358 cells at 10 uM relative to control; format: functional
# HT-29 [46] = test: Induction of DNA fragmentation in human HT29 cells at 10 uM relative to control; format: functional
# [47] = Induction of DNA fragmentation in human GEO cells at 10 uM relative to control; format: functional
# COLO 205 [48] = test: Induction of DNA fragmentation in human Colo205 cells at 10 uM relative to control; format: functional
# [49] = Clearance in CD1 mouse at 5 mg/kg, iv; format: ADME, organism-based; parameters: dose 5 mg/kg, route intravenous; conditions: in vivo
# [50] = Volume of distribution at steady state in CD1 mouse at 5 mg/kg, iv; format: ADME, organism-based; parameters: dose 5 mg/kg, route intravenous; conditions: in vivo, read-out: Vdss
# [51] = Half life in CD1 mouse at 5 mg/kg, iv; format: ADME, organism-based; parameters: dose 5 mg/kg, route intravenous; conditions: in vivo
# [52] = Cmax in CD1 mouse at 25 mg/kg, po; format: ADME, organism-based; parameters: dose 25 mg/kg, route oral; conditions: in vivo
# [53] = Plasma concentration in CD1 mouse at 25 mg/kg, po after 24 hrs; format: ADME, organism-based; parameters: dose 25 mg/kg, route oral
# [54] = AUC (0 to infinity) in CD1 mouse at 25 mg/kg, po; format: ADME, organism-based; parameters: time infinity, dose 25 mg/kg, route oral; conditions: plasma
# [55] = Oral bioavailability in CD1 mouse at 25 mg/kg; format: ADME, organism-based; conditions: in vivo
# [56] = Clearance in Sprague-Dawley rat at 1 mg/kg, iv; format: ADME, organism-based; parameters: dose 1 mg/kg, route intravenous; conditions: in vivo
# [57] = Volume of distribution at steady state in Sprague-Dawley rat at 1 mg/kg, iv; format: ADME, organism-based; parameters: dose 1 mg/kg, route intravenous; conditions: in vivo, read-out: Vdss
# [58] = Cmax in Sprague-Dawley rat at 50 mg/kg, po; format: ADME, organism-based; parameters: dose 50 mg/kg, route oral; conditions: in vivo
# [59] = Plasma concentration in Sprague-Dawley rat at 50 mg/kg, po after 24 hrs; format: ADME, organism-based; parameters: dose 50 mg/kg, route oral
# [60] = Oral bioavailability in Beagle dog at 5 mg/kg; format: ADME, organism-based, Canis lupus familiaris; conditions: in vivo
# NIH3T3 [61] = test: Antitumor activity in IGFR expressing mouse 3T3 cells xenografted nu/nu CD1 mouse at 25 mg/kg, po administered once daily for 14 days; format: functional; conditions: CD1, NIH3T3, 336 h, read-out: TGI
# NIH3T3 [62] = test: Antitumor activity in IGFR expressing mouse 3T3 cells xenografted nu/nu CD1 mouse at 75 mg/kg, po administered once daily for 14 days; format: functional; conditions: CD1, NIH3T3, 336 h, read-out: TGI
# Mus musculus [63] = test: Effect on blood glucose level in CD1 mouse at 25 mg/kg, po for 14 days; format: functional
# Mus musculus [64] = test: Increase in blood glucose level in CD1 mouse at 50 mg/kg, po for 14 days; format: functional
# Mus musculus [65] = test: Increase in blood glucose level in CD1 mouse at 100 mg/kg, po for 14 days; format: functional
# Mus musculus [66] = test: Increase in glucose level in CD1 mouse at 100 mg/kg, po 2 hrs after glucose challenge; format: functional
# Mus musculus [67] = test: Effect on plasma insulin level in CD1 mouse at 25 mg/kg, po after 4 hrs; format: functional
# Mus musculus [68] = test: Effect on plasma insulin level in CD1 mouse at 50 mg/kg, po after 4 hrs; format: functional
# Mus musculus [69] = test: Effect on plasma insulin level in CD1 mouse at 100 mg/kg, po after 4 hrs; format: functional
# [70] = Half life in Sprague-Dawley rat at 1 mg/kg, iv; format: ADME, organism-based; parameters: dose 1 mg/kg, route intravenous; conditions: in vivo
# [71] = target: Mitogen-activated protein kinase 1 (Mus musculus) (UniProt P63085); test: Inhibition of IGF1-stimulated purified ERK2 phosphorylation in mouse 3T3 cells; format: cell-based; conditions: NIH3T3
# [72] = target: T1, Insulin-like growth factor 1 receptor
# Description: Inhibition of human recombinant full length IGF1R expressed in mouse 3T3 cells
# Insulin receptor = Insulin receptor (Homo sapiens, UniProt P06213); test: Inhibition of human purified insulin receptor in biochemical assay at 100 uM ATP
# Cytochrome P450 3A4, sequence (P08684 whole entry): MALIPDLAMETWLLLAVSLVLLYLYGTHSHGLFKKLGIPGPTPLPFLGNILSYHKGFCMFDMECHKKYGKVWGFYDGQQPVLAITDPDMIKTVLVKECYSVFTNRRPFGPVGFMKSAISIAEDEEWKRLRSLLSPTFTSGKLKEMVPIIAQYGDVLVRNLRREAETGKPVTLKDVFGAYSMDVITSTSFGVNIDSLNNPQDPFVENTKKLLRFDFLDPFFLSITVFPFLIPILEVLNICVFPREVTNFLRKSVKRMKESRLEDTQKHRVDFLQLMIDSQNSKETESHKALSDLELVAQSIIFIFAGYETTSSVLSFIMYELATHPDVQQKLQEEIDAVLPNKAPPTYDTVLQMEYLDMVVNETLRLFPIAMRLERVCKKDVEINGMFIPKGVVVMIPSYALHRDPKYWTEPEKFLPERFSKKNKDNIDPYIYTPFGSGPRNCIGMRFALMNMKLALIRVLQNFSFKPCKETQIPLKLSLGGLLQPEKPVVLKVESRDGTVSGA
# T1 sequence (P08069 31-736 limits assumed): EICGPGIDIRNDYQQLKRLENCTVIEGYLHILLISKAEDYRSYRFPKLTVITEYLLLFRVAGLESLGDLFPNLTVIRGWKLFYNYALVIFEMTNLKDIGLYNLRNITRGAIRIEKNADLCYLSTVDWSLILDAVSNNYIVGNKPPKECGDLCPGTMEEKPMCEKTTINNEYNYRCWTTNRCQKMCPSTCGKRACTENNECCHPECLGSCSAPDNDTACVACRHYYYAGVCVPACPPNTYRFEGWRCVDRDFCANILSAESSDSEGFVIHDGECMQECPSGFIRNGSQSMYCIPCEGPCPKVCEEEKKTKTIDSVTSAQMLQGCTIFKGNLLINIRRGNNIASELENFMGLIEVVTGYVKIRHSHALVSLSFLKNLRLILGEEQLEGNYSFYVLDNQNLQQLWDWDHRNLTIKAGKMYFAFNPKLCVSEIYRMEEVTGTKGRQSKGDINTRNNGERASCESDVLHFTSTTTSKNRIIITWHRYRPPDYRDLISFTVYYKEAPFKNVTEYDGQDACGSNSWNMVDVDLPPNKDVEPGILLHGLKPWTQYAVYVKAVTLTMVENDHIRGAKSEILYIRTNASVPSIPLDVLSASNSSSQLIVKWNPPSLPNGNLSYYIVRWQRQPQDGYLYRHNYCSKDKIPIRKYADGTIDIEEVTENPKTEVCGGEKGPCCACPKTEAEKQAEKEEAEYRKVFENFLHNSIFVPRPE
# T1 sequence (P08069 741-1367 limits assumed): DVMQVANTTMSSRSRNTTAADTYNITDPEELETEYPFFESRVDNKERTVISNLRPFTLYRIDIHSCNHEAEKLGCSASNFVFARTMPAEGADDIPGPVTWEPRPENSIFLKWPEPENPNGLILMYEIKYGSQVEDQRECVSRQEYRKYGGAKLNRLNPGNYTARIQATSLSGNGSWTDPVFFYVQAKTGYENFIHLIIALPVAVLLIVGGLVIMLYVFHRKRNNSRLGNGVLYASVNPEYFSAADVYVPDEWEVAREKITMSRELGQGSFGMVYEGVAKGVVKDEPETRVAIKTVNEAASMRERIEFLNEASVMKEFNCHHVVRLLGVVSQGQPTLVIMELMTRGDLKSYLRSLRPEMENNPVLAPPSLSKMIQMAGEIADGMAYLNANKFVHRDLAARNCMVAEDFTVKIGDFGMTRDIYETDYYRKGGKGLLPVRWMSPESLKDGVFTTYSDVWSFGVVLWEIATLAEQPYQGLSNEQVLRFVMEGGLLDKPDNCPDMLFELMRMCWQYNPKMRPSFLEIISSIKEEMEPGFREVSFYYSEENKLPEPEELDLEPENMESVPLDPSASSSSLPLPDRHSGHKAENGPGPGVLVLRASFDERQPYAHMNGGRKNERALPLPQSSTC
# Rho-associated protein kinase 2, sequence (O75116 whole entry): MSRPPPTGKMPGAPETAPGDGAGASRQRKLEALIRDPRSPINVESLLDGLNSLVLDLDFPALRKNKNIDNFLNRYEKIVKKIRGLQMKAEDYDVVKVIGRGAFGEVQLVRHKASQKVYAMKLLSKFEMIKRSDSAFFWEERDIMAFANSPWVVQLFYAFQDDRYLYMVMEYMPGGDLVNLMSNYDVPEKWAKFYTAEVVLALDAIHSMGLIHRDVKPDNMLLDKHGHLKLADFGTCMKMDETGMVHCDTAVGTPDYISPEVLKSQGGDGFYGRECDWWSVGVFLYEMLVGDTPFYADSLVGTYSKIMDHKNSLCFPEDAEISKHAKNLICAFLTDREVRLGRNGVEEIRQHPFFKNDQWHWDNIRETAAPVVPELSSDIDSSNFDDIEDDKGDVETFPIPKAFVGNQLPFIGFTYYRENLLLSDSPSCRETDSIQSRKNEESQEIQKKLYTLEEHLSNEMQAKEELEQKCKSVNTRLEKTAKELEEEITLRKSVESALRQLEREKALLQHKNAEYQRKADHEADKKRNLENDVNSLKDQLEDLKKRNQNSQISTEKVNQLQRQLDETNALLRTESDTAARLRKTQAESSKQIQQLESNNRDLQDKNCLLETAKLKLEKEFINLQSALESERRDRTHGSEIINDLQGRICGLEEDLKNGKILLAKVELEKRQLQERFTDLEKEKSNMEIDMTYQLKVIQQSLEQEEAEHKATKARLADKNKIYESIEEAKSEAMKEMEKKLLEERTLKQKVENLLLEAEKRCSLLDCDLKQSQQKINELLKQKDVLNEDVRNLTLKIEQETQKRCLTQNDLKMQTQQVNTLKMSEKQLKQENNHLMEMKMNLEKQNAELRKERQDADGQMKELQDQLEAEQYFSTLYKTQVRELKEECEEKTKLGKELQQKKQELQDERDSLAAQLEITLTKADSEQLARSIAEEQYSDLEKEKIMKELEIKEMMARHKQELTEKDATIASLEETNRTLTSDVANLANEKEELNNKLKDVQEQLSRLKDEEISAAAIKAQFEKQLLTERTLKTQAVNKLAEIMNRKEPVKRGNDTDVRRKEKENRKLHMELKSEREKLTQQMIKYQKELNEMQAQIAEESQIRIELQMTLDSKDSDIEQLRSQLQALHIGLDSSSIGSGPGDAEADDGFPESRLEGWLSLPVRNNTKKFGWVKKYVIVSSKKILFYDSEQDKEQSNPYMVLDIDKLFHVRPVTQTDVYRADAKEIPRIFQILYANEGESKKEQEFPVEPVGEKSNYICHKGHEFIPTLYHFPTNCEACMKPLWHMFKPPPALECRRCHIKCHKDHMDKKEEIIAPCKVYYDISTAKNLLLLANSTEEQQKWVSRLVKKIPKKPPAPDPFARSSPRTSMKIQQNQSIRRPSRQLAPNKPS
# Proto-oncogene tyrosine-protein kinase Src, sequence (P12931 2-536 limits assumed): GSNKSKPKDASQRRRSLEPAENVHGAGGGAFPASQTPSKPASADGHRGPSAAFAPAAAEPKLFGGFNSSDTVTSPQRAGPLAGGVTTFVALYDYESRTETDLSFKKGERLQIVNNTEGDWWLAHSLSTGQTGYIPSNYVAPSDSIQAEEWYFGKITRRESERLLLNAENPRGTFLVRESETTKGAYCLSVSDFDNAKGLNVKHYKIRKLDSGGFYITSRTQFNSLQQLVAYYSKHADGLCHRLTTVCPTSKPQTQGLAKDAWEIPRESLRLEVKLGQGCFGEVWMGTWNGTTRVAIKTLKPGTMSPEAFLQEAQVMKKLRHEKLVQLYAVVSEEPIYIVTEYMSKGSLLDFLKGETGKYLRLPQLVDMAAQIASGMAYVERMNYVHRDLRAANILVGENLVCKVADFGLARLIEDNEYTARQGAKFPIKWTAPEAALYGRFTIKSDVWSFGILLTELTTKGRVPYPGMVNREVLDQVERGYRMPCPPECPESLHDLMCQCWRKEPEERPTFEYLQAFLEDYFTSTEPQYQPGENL
# Tyrosine-protein kinase Fyn, sequence (P06241 whole entry): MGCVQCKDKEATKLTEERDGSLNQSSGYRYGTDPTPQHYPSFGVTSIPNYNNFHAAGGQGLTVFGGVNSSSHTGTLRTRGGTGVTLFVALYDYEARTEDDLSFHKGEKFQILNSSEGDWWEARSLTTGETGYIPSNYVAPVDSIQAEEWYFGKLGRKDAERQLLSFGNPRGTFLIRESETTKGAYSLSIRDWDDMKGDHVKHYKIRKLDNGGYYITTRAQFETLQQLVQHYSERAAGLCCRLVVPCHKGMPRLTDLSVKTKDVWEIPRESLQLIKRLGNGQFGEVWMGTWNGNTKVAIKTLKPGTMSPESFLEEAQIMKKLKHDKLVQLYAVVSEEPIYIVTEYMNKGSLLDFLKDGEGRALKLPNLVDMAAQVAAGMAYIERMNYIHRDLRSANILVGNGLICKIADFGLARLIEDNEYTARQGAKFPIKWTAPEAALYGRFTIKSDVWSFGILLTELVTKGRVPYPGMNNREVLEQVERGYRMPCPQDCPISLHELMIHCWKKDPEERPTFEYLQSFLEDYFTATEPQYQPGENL
# Mitogen-activated protein kinase 10, sequence (P53779 whole entry): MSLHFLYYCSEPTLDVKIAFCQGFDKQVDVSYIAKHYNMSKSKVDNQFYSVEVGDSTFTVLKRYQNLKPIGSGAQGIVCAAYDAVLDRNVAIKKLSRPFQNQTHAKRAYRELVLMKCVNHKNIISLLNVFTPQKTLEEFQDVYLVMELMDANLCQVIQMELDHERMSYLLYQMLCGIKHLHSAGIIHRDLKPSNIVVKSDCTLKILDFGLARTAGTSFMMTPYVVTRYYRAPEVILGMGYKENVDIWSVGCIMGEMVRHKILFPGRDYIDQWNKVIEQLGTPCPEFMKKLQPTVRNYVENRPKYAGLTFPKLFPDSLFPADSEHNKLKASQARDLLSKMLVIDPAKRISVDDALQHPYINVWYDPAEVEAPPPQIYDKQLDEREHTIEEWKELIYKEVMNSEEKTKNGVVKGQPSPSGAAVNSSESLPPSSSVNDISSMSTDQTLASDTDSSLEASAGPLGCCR
smiles,measurement,setting,value
Nc1nccn2c1c(-c1ccc3ccc(-c4ccccc4)nc3c1)nc2[C@H]1C[C@@H](CN2CCC2)C1,IC50,Cytochrome P450 3A4,> 20 µM
same,IC50,[1],0.035 µM
same,IC50,[2],> 10 µM
same,IC50,[3],> 10 µM
same,IC50,[4],> 10 µM
same,IC50,[5],> 10 µM
same,IC50,Focal adhesion kinase 1,> 10 µM
same,IC50,[6],> 10 µM
same,IC50,[7],4.3 µM
same,IC50,[8],> 10 µM
same,IC50,[9],> 10 µM
same,IC50,[10],> 10 µM
same,IC50,[11],> 5 µM
same,IC50,[12],5.9 µM
same,IC50,[13],> 10 µM
same,IC50,[14],> 10 µM
same,IC50,[15],> 10 µM
same,IC50,[16],> 10 µM
same,IC50,[17],> 10 µM
same,AUC(0-inf),[18],37400 ng·h/mL
same,bioavailability,[19],38%
same,clearance,[20],30 mL/min/kg
same,Vd,[21],50 L/kg
same,half-life,[22],19 h
same,Cmax,[23],170 nM
same,concentration at 24 h,[24],90 nM
same,AUC(0-inf),[25],3010 ng·h/mL
same,IC50,[26],> 10 µM
same,IC50,Aurora kinase A,> 10 µM
same,IC50,[27],> 10 µM
same,IC50,[28],> 10 µM
same,IC50,[29],> 10 µM
same,IC50,[30],> 10 µM
same,IC50,[31],> 10 µM
same,Activity,NIH3T3 [32],Dose-dependent effect
same,Activity,NIH3T3 [33],Dose-dependent effect
same,Activity,NIH3T3 [34],Dose-dependent effect
same,IC50,NIH3T3 [35],0.05 µM
same,IC50,NIH3T3 [36],0.05 µM
same,IC50,[37],1.95 µM
same,IC50,[38],0.69 µM
same,IC50,NCI-H358 [39],2.98 µM
same,IC50,HT-29 [40],1.26 µM
same,IC50,[41],0.27 µM
same,IC50,COLO 205 [42],0.93 µM
same,Activity,[43],51
same,Activity,[44],16
same,Activity,NCI-H358 [45],2.7
same,Activity,HT-29 [46],46
same,Activity,[47],4
same,Activity,COLO 205 [48],0.8
same,clearance,[49],24 mL/min/kg
same,Vd,[50],10 L/kg
same,half-life,[51],5.1 h
same,Cmax,[52],3400 nM
same,concentration at 24 h,[53],400 nM
same,AUC(0-inf),[54],25600 ng·h/mL
same,bioavailability,[55],100%
same,clearance,[56],10 mL/min/kg
same,Vd,[57],14 L/kg
same,Cmax,[58],1600 nM
same,concentration at 24 h,[59],900 nM
same,bioavailability,[60],94%
same,inhibition in vivo at 25 mg/kg,NIH3T3 [61],92%
same,inhibition in vivo at 75 mg/kg,NIH3T3 [62],> 100%
same,Activity,Mus musculus [63],-2.9%
same,Activity,Mus musculus [64],18%
same,Activity,Mus musculus [65],75%
same,Activity,Mus musculus [66],44%
same,Activity,Mus musculus [67],13.1 ng/mL
same,Activity,Mus musculus [68],14.7 ng/mL
same,Activity,Mus musculus [69],27 ng/mL
same,half-life,[70],19.9 h
same,Activity,[71],Dose-dependent effect
same,IC50,[72],0.02 µM
same,IC50,Insulin receptor,0.076 µM
Nc1nccn2c1c(-c1ccc3ccc(-c4ccccc4)nc3c1)nc2[C@H]1C[C@@H](N2CCCC2)C1,IC50,Cytochrome P450 3A4,17 µM
Nc1nccn2c1c(-c1ccc3ccc(-c4ccccc4)nc3c1)nc2[C@H]1C[C@@H](CN2CCOCC2)C1,IC50,Cytochrome P450 3A4,> 20 µM
CN(C)[C@H]1C[C@@H](c2nc(-c3ccc4ccc(-c5ccccc5)nc4c3)c3c(N)nccn32)C1,IC50,Cytochrome P450 3A4,19 µM
